Assay [1] concerns the target T1, CD73 (Homo sapiens (Human), UniProt P21589). As to the kind of experiment: Biochemical CD73 Assay (Malachite Green free phosphate detection). To be noted: recombinant human CD73 2 nM, AMP 40 μM, 45 min at 37° C. The method, then:
Activity of recombinant CD73 was measured by quantification of free phosphate using the Malachite Green detection system (R&D Systems #DY996). Test compounds were solubilized in DMSO and dispensed into 384-well polystyrene plates in a 8-point 3× titration in duplicates. Then, 10 μL of 4 nM human CD73 enzyme (Novoprotein #C446) in phosphate-free assay buffer (10 mM HEPES, pH 7.4, 125 mM NaCl, 1 mM KCl, 10 mM glucose, 2 mM MgCl2) was added to the plates. The compound and enzyme were incubated for 15 min at RT. Then, 10 μL of 80 μM AMP (Sigma Aldrich #A1752) in the assay buffer was added and the reaction mixture was incubated for 45 min at 37° C. The final concentrations of CD73 and AMP in the reaction were 2 nM and 40 μM, respectively. The reaction was stopped by adding 5 μL of Malachite Green reagent A and incubating for 10 min at RT, followed by addition of 5 μL of Malachite Green reagent B and incubation for 20 min at RT. Absorbance was then read at 620 nm with the Flexstation spectrophotometer (Molecular Devices). The IC50 values were determined using a four-parameter nonlinear regression curve fit.

In assay [2] the target is T1, CD73. As to the kind of experiment: Cellular CD73 Assay (primary human CD3+ T-cells with AMP). The format is cell-based. To be noted: primary human peripheral blood CD3+ T-cells, 40 μM AMP, 3 days; readout (cell division or IL-2/IFN-γ) not specified for the column. The method, then: Primary human peripheral blood CD3+ T-cells obtained from AllCells were thawed and cultured for 24 h in a complete growth medium (Stemline T-cell expansion medium, Sigma #S1694) supplemented with 1 mM L-glutamine, 50 IU/mL of IL-2 and 25 μL/mL of Dynabeads™ Human T-Activator CD3/CD28 (Thermo-Fisher #11161D) at a density of 10^6 cells/mL. Then, cells were labeled with 1.25 μM Cell Trace Violet (Thermo-Fisher #C34557) according to the manufacturer's instructions. Labeled cells were resuspended in a warm complete growth medium and plated onto U-bottom 96-well plates at 25,000 cells/90 μL/well. Next, 500× serial compound dilutions were prepared in DMSO in a 8-point 3-fold titration and then diluted 1:25 into a complete growth medium, generating 20× compound dilutions. Then, 5 μL of 20× compound dilutions was added to the cells and incubated for 60 min at 37° C. After this, 5 μL of 20×AMP was added to a final concentration of 40 μM. Treated cells were cultured for 3 days at 37° C., 5% CO2. Thereafter, cells were gently pelleted by centrifugation, and supernatants were collected and frozen at −80° C. for subsequent cytokine analysis. Cell pellets were resuspended in 100 μL of PBS/2% FBS and gently pipetted up and down to produce a single cell suspension. Then, 3 μL of 7-AAD (BD Biosciences #559925) was added to each well and plates were incubated on ice for 5 min. Cells were then washed and resuspended in 150 μL of PBS/2% FBS. Divided and non-divided live cells were quantified by Attune NxT flow cytometer. Cell Trace Violet-labeled cells cultured without a T-cell activator were used as the nondividing control.
For IL-2 and IFN-γ cytokine analysis, supernatants were thawed on ice, diluted 1:10 in the buffer. The concentration of cytokines was determined using Meso Scale Discovery according to the manufacturer's instructions (Meso Scale Discovery). The EC50 values were determined using a four-parameter nonlinear regression curve fit (GraphPad Prism Version 9.2, GraphPad Software Inc., San Diego, CA).

T1 sequence (P21589 27-574): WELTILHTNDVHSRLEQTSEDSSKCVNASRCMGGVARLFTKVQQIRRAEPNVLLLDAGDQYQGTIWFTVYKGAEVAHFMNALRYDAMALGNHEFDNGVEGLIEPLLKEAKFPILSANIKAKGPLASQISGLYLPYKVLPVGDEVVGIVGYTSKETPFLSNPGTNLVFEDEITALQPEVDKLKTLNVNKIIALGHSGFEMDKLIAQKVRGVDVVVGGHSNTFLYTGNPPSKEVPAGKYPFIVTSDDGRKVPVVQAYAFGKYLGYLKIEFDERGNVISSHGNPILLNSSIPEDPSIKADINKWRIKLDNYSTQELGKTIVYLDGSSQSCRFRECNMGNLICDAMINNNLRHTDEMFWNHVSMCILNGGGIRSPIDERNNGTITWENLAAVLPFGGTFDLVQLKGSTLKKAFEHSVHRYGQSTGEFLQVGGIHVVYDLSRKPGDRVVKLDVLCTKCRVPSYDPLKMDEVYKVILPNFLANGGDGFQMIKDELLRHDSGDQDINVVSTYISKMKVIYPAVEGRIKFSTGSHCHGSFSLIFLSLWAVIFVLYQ

As for `COC[C@@](OC[C@H]1O[C@@H](n2ncc3c(NC4CCCC4)nc(Cl)nc32)[C@H](O)[C@@H]1O)(C(=O)N=S(C)(=O)NC(=O)C(C)C)P(=O)(O)O` (single isomer, unassigned) [Example 15], the IC50 in assay [1] turned out to be 6.3 nM. Moreover, in assay [2], the response was half-maximal at 7.78 nM (EC50).
For the molecule `COC[C@@](OC[C@H]1O[C@@H](n2ncc3c(NC4CCCC4)nc(Cl)nc32)[C@H](O)[C@@H]1O)(C(=O)N=S(C)(=O)NC(=O)C(C)C)P(=O)(O)O` (single isomer, unassigned) [Example 16], the IC50 in assay [1] came out at 0.78 nM. Also, in assay [2], it took 1.34 nM to reach a half-maximal effect (EC50).
Take `COC[C@@](OC[C@H]1O[C@@H](n2ncc3c(NC4CCCC4)nc(Cl)nc32)[C@H](O)[C@@H]1O)(C(=O)N=[S@](C)(N)=O)P(=O)(O)O` [Example 1, ((2S)-1-((Amino(methyl)(oxo)-λ^6-sulfaneylidene)amino)-2-(((2R,3S,4R,5R)-5-(6-chloro-4-(cyclopentylamino)-1H-pyrazolo[3,4-d]pyrimidin-1-yl)-3,4-dihydroxytetrahydrofuran-2-yl)methoxy)-3-methoxy-1-oxopropan-2-yl)phosphonic Acid]: the IC50 in assay [1] was 0.94 nM. Moreover, the EC50 in assay [2] came to 0.51 nM.
Take `COC[C@@](OC[C@H]1O[C@@H](n2ncc3c(NC4CCCC4)nc(Cl)nc32)[C@H](O)[C@@H]1O)(C(=O)N=[S@@](C)(N)=O)P(=O)(O)O` [Example 3, ((2S)-1-((Amino(methyl)(oxo)-λ^6-sulfaneylidene)amino)-2-(((2R,3S,4R,5R)-5-(6-chloro-4-(cyclopentylamino)-1H-pyrazolo[3,4-d]pyrimidin-1-yl)-3,4-dihydroxytetrahydrofuran-2-yl)methoxy)-3-methoxy-1-oxopropan-2-yl)phosphonic Acid]: in assay [1], the IC50 came out at 1 nM. Also, the EC50 in assay [2] amounted to 1.5 nM.
For `CNC(=O)N[S@](C)(=O)=NC(=O)[C@@](COC)(OC[C@H]1O[C@@H](n2ncc3c(NC4CCCC4)nc(Cl)nc32)[C@H](O)[C@@H]1O)P(=O)(O)O` [Example 9, ((S)-2-(((2R,3S,4R,5R)-5-(6-Chloro-4-(cyclopentylamino)-1H-pyrazolo[3,4-d]pyrimidin-1-yl)-3,4-dihydroxytetrahydrofuran-2-yl)methoxy)-3-methoxy-1-(((R)-methyl(3-methylureido)(oxo)-λ^6-sulfaneylidene)amino)-1-oxopropan-2-yl)phosphonic Acid], in that order: 0.9 nM and 1.57 nM.
The corresponding values for `CNC(=O)N[S@@](C)(=O)=NC(=O)[C@@](COC)(OC[C@H]1O[C@@H](n2ncc3c(NC4CCCC4)nc(Cl)nc32)[C@H](O)[C@@H]1O)P(=O)(O)O` [Example 10, ((S)-2-(((2R,3S,4R,5R)-5-(6-Chloro-4-(cyclopentylamino)-1H-pyrazolo[3,4-d]pyrimidin-1-yl)-3,4-dihydroxytetrahydrofuran-2-yl)methoxy)-3-methoxy-1-(((S)-methyl(3-methylureido)(oxo)-λ^6-sulfaneylidene)amino)-1-oxopropan-2-yl)phosphonic Acid] are 0.31 nM and 0.72 nM.
With `COC[C@@](OC[C@H]1O[C@@H](n2ncc3c(NC4CCCC4)nc(Cl)nc32)[C@H](O)[C@@H]1O)(C(=O)N=[S@@](C)(=O)NC(=O)C1CC1)P(=O)(O)O` [Example 11, ((S)-2-(((2R,3S,4R,5R)-5-(6-Chloro-4-(cyclopentylamino)-1H-pyrazolo[3,4-d]pyrimidin-1-yl)-3,4-dihydroxytetrahydrofuran-2-yl)methoxy)-1-(((R)-cyclopropanecarboxamido(methyl)(oxo)-λ^6-sulfaneylidene)amino)-3-methoxy-1-oxopropan-2-yl)phosphonic Acid], the IC50 in assay [1] was found to be 0.77 nM. In assay [2], this molecule registered a concentration for a half-maximal effect (EC50) of 0.9 nM.
On to `COC[C@@](OC[C@H]1O[C@@H](n2ncc3c(NC4CCCC4)nc(Cl)nc32)[C@H](O)[C@@H]1O)(C(=O)N=[S@](C)(=O)NC(=O)C1CC1)P(=O)(O)O` [Example 12, ((S)-2-(((2R,3S,4R,5R)-5-(6-Chloro-4-(cyclopentylamino)-1H-pyrazolo[3,4-d]pyrimidin-1-yl)-3,4-dihydroxytetrahydrofuran-2-yl)methoxy)-1-(((S)-cyclopropanecarboxamido(methyl)(oxo)-λ^6-sulfaneylidene)amino)-3-methoxy-1-oxopropan-2-yl)phosphonic Acid], for which the IC50 in assay [1] came out at 0.45 nM. The EC50 in assay [2] was determined as 0.92 nM.
With `CCC(=O)NS(C)(=O)=NC(=O)[C@@](COC)(OC[C@H]1O[C@@H](n2ncc3c(NC4CCCC4)nc(Cl)nc32)[C@H](O)[C@@H]1O)P(=O)(O)O` (stereo partly drawn) [Example 13, ((2S)-2-(((2R,3S,4R,5R)-5-(6-Chloro-4-(cyclopentylamino)-1H-pyrazolo[3,4-d]pyrimidin-1-yl)-3,4-dihydroxytetrahydrofuran-2-yl)methoxy)-3-methoxy-1-((methyl(oxo)(propionamido)-λ^6-sulfaneylidene)amino)-1-oxopropan-2-yl)phosphonic Acid], the IC50 in assay [1] stood at 0.7 nM. In addition, the EC50 in assay [2] came out at 0.68 nM.
Consider `CCC(=O)NS(C)(=O)=NC(=O)[C@@](COC)(OC[C@H]1O[C@@H](n2ncc3c(NC4CCCC4)nc(Cl)nc32)[C@H](O)[C@@H]1O)P(=O)(O)O` (stereo partly drawn) [Example 14, ((2S)-2-(((2R,3S,4R,5R)-5-(6-Chloro-4-(cyclopentylamino)-1H-pyrazolo[3,4-d]pyrimidin-1-yl)-3,4-dihydroxytetrahydrofuran-2-yl)methoxy)-3-methoxy-1-((methyl(oxo)(propionamido)-λ^6-sulfaneylidene)amino)-1-oxopropan-2-yl)phosphonic Acid], for which the IC50 in assay [1] amounted to 0.74 nM. In assay [2], this molecule yielded an EC50 of 1.15 nM.
Regarding `COC[C@@](OC[C@H]1O[C@@H](n2ncc3c(NC4CCCC4)nc(Cl)nc32)[C@H](O)[C@@H]1O)(C(=O)N=[S@](C)(=O)NC(C)=O)P(=O)(O)O` [Example 17, ((S)-1-(((S)-Acetamido(methyl)(oxo)-λ^6-sulfaneylidene)amino)-2-(((2R,3S,4R,5R)-5-(6-chloro-4-(cyclopentylamino)-1H-pyrazolo[3,4-d]pyrimidin-1-yl)-3,4-dihydroxytetrahydrofuran-2-yl)methoxy)-3-methoxy-1-oxopropan-2-yl)phosphonic Acid], the IC50 in assay [1] came to 0.58 nM. In assay [2], this molecule had an EC50 of 0.98 nM.
`COC[C@@](OC[C@H]1O[C@@H](n2ncc3c(NC4CCCC4)nc(Cl)nc32)[C@H](O)[C@@H]1O)(C(=O)N=[S@](C)(=O)NC(=O)OC)P(=O)(O)O` [Example 18, ((S)-2-(((2R,3S,4R,5R)-5-(6-Chloro-4-(cyclopentylamino)-1H-pyrazolo[3,4-d]pyrimidin-1-yl)-3,4-dihydroxytetrahydrofuran-2-yl)methoxy)-3-methoxy-1-(((S)-((methoxycarbonyl)amino)(methyl)(oxo)-λ^6-sulfaneylidene)amino)-1-oxopropan-2-yl)phosphonic Acid]: the IC50 in assay [1] worked out at 0.5 nM. In addition, it took 1 nM to reach a half-maximal effect in assay [2] (EC50).

(Values after patent publication US20240140980A1, “HETEROCYCLIC INHIBITORS OF CD73 FOR TREATMENT OF DISEASE” (Teon Therapeutics, Inc., priority 2022, published 2024).)
